Results reported in patent US11365227B2, “Peptide and pharmaceutical compositions of same for use as an antimicrobial and in cancer treatment” (UNIVERSITAT DE VALÈNCIA, priority 2017, dated 2022).
Read-outs that look alike come from different tables or passages of the source. Where a SMILES comes first, the peptide text is derived from it.

Tests used:
S. aureus = assay: Scanning electron microscopy of S. aureus cells treated with peptides; assay type: cell-based, Staphylococcus aureus subsp. aureus CECT 4013; details: 25 μg/mL, 1 h
Experimental: The cells were prepared in the same way as for the flow cytometry technique and the same aliquots and treatments were performed. The samples were incubated at 37° C. for 1 h. The bacteria were fixed with Karnosky (2.5% paraformaldehyde and 0.5 glutaraldehyde) for 2 h at 4° C. After washing (centrifuging and eliminating the supernatant) they were fixed with 2% osmium tetraoxide for another 2 h, washed again and filtered with a 0.2 μm filter. The cells were then dehydrated in graded ethanol series (30°, 50°, 70°, 90°, 100°) for 10 min in each gradation. To carry out the critical point drying, the ethanol was replaced with liquid CO2, the temperature was increased to accelerate evaporation and the pressure was lowered slowly to conserve the exact shape of the bacteria. Finally, shading with gold palladium was performed for 2 min observing the results in the equipment FEG-SEM HITACHI S4800 at 10 Kv.
Scanning electron microscopy provides high-resolution images used to view the damage caused by the peptides to the bacterial membrane. The cells of S. aureus CECT 4013 were treated with the peptides hBD-3, TcDef3-pep and PaSK at a concentration of 25 μg/mL, for 1 h, and analysed using scanning electron microscopy (FIG. 4). In cells without treatment the circular and uniform form typical of S. aureus was observed, with the intact membrane, while in treated cells various types of morphological alterations can be seen. […] With this treatment small circular structures are observed, smaller than the cells of S. aureus.

MDA-MB-231 cells [1] = assay: Cell proliferation analysis by flow cytometry with Oregon Green; assay type: cell-based, human; details: 50 μM (200 μg/mL)
Experimental: A cell proliferation analysis was performed by flow cytometry for tumour cells marked with the fluorophore Oregon Green subsequently treated with a concentration of 50 μM (200 μg/mL) of the peptide PaSK or with H2O as control. This analysis allowed exploring the use of PaSK in a combined therapeutic approach. The combined use of therapeutic agents meant to inhibit tumour growth and maintenance and agents capable of stimulating the patient's immune response in the treatment of cancer is an alternative therapeutic approach to conventional approaches based only on cytotoxic agents for reducing the impact of the two main problems associated with the exclusive use of cytotoxic agents in cancer therapy: non-specific toxicity and the appearance of resistance.
The reagent Oregon Green is covalently bonded to free amine groups of cells, conferring on same a homogeneous fluorescence that is distributed among the daughter cells in each cell division. As the fluorescence intensity of the cells is approximately halved with each cell division, the final fluorescence intensity after treatment with the peptide and in non-treated control cells compared to the initial fluorescence intensity of the cells provides information on how many cell division cycles have occurred in each case.

MDA-MB-231 cells [2] = assay: Differential proteomic analysis by SWATH; assay type: cell-based, human
[3] = test system: MDA-MB-231 triple-negative breast cancer cells; assay: Cell viability MTS assay, cytotoxic effect; assay type: cell-based, human; details: around 100 μM (400 μg/mL)
Experimental: Cell viability was determined by the MTS method. The MDA-MB-231 cells cultured in plates with 96 wells at 37° C. in an atmosphere humidified with 10% CO2 to a density of 5×10^3 cells/well were incubated with different concentrations of the peptide PaSK for 24 h. Then 20 μL were added of the solution MTS/PMS (3-(4,5-dimethylthiazol-2-yl)-5-(3-carboxymethoxyfenyl)-2-(4-sulphophenyl)-2H-tetrazole/phenazine methosulphate) to each well and after incubating for 2 h in the dark the absorbance at 490 nm was read in a plate reader. The percentage reduction in number of cells was calculated according to the formula (1−E/C)×100, where E is the absorbance of the cells treated with the peptide and C is the absorbance of the samples of the control cells.
The cytotoxic effect of the peptide PaSK has been studied in two cell lines of triple-negative breast cancer cells, one human (MDA-MB-231) and one mouse (4T1), and a line of normal mouse mammary epithelial cells (HC-11). To this end, a cell viability MTS assay was performed, based on the use of a compound derived from tetrazolium that is reduced in live cells to form a soluble coloured product. […]

SMILES: CC[C@H](C)[C@H](NC(=O)[C@H](CCCNC(=N)N)NC(=O)[C@H](CCCNC(=N)N)NC(=O)[C@H](CCCCN)NC(=O)[C@H](CC(N)=O)NC(=O)[C@H](CS)NC(=O)[C@H](Cc1ccc(O)cc1)NC(=O)CNC(=O)CNC(=O)[C@H](CCCNC(=N)N)NC(=O)[C@H](CCCCN)NC(=O)[C@H](CCCNC(=N)N)NC(=O)[C@H](CCCCN)NC(=O)[C@H](CC(C)C)NC(=O)[C@H](CC(C)C)NC(=O)[C@H](CS)NC(=O)[C@H](Cc1c[nH]cn1)NC(=O)[C@H](C)NC(=O)[C@H](C)NC(=O)[C@H](CS)NC(=O)[C@H](C)NC(=O)[C@H](C)NC(=O)[C@H](Cc1c[nH]cn1)NC(=O)[C@H](CC(N)=O)NC(=O)[C@@H](NC(=O)[C@@H](N)CCCCN)C(C)C)C(=O)N[C@@H](CS)C(=O)N[C@H](C(=O)N[C@@H](CS)C(=O)N[C@@H](CCCNC(=N)N)C(=O)N[C@@H](CC(N)=O)C(=O)O)C(C)C [PaSK] (H-KVNHAACAAHCLLKRKRGGYCNKRRICVCRN-OH; N-terminus and C-terminus assumed)
- biofilm formation, scanning electron microscopy (S. aureus): biofilm produced
- morphological alterations, scanning electron microscopy (S. aureus): complete cell disintegration
- cell proliferation (Oregon Green fluorescence intensity) (MDA-MB-231 cells [1]): inhibits proliferation
- T/C change ratio (MDA-MB-231 cells [2]): 1.45
- T/C change ratio (MDA-MB-231 cells [2]; ASNA_HUMAN, ATPase ASNA1): 0.21
- T/C change ratio (MDA-MB-231 cells [2]; BAZ1B_HUMAN, Tyrosine-protein kinase BAZ1B): 0.31
- T/C change ratio (MDA-MB-231 cells [2]; CALD1_HUMAN, Caldesmon): 0.71
- T/C change ratio (MDA-MB-231 cells [2]; CDCP1_HUMAN, Protein 1 containing domain CUB): 1.22
- T/C change ratio (MDA-MB-231 cells [2]; CK068_HUMAN, UPF0696 protein C11orf68): 0.83
- T/C change ratio (MDA-MB-231 cells [2]; DCUP_HUMAN, Uroporfphyrinogen decarboxylase): 0.21
- T/C change ratio (MDA-MB-231 cells [2]; DDX17_HUMAN, Probable DDX17 ATP-dependent RNA helicase): 0.84
- T/C change ratio (MDA-MB-231 cells [2]; DENR_HUMAN, Density regulated protein): 0.31
- T/C change ratio (MDA-MB-231 cells [2]; DHX36_HUMAN, DHX36 ATP-dependent RNA helicase): 0.27
- T/C change ratio (MDA-MB-231 cells [2]; DPOD1_HUMAN, DNA polymerase delta catalytic subunit): 0.50
- T/C change ratio (MDA-MB-231 cells [2]; EIF3B_HUMAN, Eukaryotic translation initiation factor 3B (EIF3B)): 0.84
- T/C change ratio (MDA-MB-231 cells [2]; FXR1_HUMAN, Fragile X mental retardation protein 1): 0.76
- T/C change ratio (MDA-MB-231 cells [2]; GPX1_HUMAN, Glutathione peroxidase 1 (GPX1)): 5.89
- T/C change ratio (MDA-MB-231 cells [2]; KAD2_HUMAN, Adenylate kinase 2, mitochondrial): 0.51
- T/C change ratio (MDA-MB-231 cells [2]; LARP1_HUMAN, La related protein 1 (LARP1)): 0.28
- T/C change ratio (MDA-MB-231 cells [2]; MANF_HUMAN, Mesencephalic astrocyte-derived neurotrophic factor): 0.63
- T/C change ratio (MDA-MB-231 cells [2]; MMP14_HUMAN, Matrix metalloprotease-14): 1.92
- T/C change ratio (MDA-MB-231 cells [2]; PYRG1_HUMAN, CTP synthase 1): 0.82
- T/C change ratio (MDA-MB-231 cells [2]; RL5_HUMAN, 60 S ribosomal protein L5 (RPSL5)): 0.60
- T/C change ratio (MDA-MB-231 cells [2]; RS13_HUMAN, 40S ribosomal protein S13 (RPS13)): 0.82
- T/C change ratio (MDA-MB-231 cells [2]; SDCB1_HUMAN, Sintenin-1): 1.43
- T/C change ratio (MDA-MB-231 cells [2]; SET_HUMAN, SET protein): 0.90
- T/C change ratio (MDA-MB-231 cells [2]; SH3G1_HUMAN, Endophilin-A2): 0.63
- T/C change ratio (MDA-MB-231 cells [2]; SHLB2_HUMAN, Endophilin-B2): 0.29
- T/C change ratio (MDA-MB-231 cells [2]; SQRD_HUMAN, Sulphide: quinone oxidoreductase (SQRDL), mitochondrial): 1.30
- T/C change ratio (MDA-MB-231 cells [2]; TAGL2_HUMAN, Transgelin-2): 0.75
- T/C change ratio (MDA-MB-231 cells [2]; TM9S4_HUMAN, Member 4 of the transmembrane 9 superfamily): 0.37
- T/C change ratio (MDA-MB-231 cells [2]; TPM4_HUMAN, Tropomyosin alpha-4 chain): 0.74
- T/C change ratio (MDA-MB-231 cells [2]; TRXR1_HUMAN, Thioredoxin reductase 1 (TXNRD1), cytoplasmic): 1.59
- T/C change ratio (MDA-MB-231 cells [2]; U2AF2_HUMAN, U2AF union factor 65 kDa subunit): 0.31
- cytotoxicity compared with the other cell lines [3]: significantly more cytotoxic
